Where two headings read alike, the source gives them in different places.
What was measured:
[1] = system: scopolamine-induced amnesia rats; experiment: Locomotor activity (photoactometer), scopolamine-induced amnesia; format: in vivo, Wistar rats; conditions: scopolamine model, Mean ± SEM, photo beam counts for 5 min
Experimental: In the acute model, the rats were trained for Morris water maze (MWM) and passive avoidance test (PAT) tasks in the first 4 days. On the 5th day, 30 min after scopolamine administration, respective treatments were given to all the groups. Fifteen minutes thereafter, the test trials were conducted in MWM and PAT.
Locomotor activity was assessed in animals using a digital photoactometer (INCO, India) which contains a cage that is 30-cm long and 30-cm deep with a wire mesh at the bottom. The apparatus was placed in a dark, light, and sound attenuated testing room. Before the locomotor task, animals were placed individually in the activity meter for 3 min for habituation. Then, the ambulatory movements were recorded for 5 min and expressed in terms of total photo beam counts for 5 min per animal.

[2] = system: ICV colchicine-induced dementia rats; experiment: Morris water maze test, ICV colchicine-induced dementia (chronic model); format: in vivo, Wistar rats; conditions: Mean ± SEM; for Escape latency, 14th day / Escape latency, 21st day: colchicine 15 µg ICV; for Escape latency, Probe day: colchicine model
Experimental: In the chronic model, the rats were trained for MWM and PAT tasks for the first 4 days followed by intracerebroventricular (i.c.v.) administration of colchicine on day 6. After establishing dementia on day 10 of the colchicine administration, the drug treatment was initiated from day 11 to 24. The effects of different drug treatments on dementia were assessed on days 14 and 21. On these particular days, the swim test was performed 15 min after the administration of different treatments and escape latencies; residence time and peripheral swim time were recorded (Nampoothiri [2017]). The retention trials for PAT on day 17 and 23 were performed on days 17 and 23, 15 min after the administration of the drug.
On the 6th day, surgery was performed as described (Bokare et al. [2018]). Rat was anesthetized with sodium pentobarbital (45 mg/kg, i.p.) and positioned in stereotaxic apparatus. The head was positioned in a frame, and a midline sagittal incision was made in the scalp. Two holes were drilled through the skull at coordinates (0.8 mm posterior to bregma, 1.8 mm lateral to the sagittal suture, and 3.6 mm beneath the cortical surface) to place the injection cannula. Rats were intracerebroventricularly infused with either artificial cerebrospinal fluid (ACSF; in mM: 147 NaCl, 2.9 KCl, 1.6 MgCl2, 1.7 CaCl2, and 2.2 dextrose) or 15 µg of colchicine in 5 µL ACSF using a Hamilton microsyringe positioned in the injection cannula. To promote back diffusion, the microsyringe was left in place for 2 min following injection. The scalp was then closed with a suture. After surgery, all animals received gentamicin (5 mg/kg, i.p.) to prevent sepsis. Special care was taken during the postoperative period to provide food and water inside the cage of the rat. In sham-operated rats, surgery was identical except for injection of the solution.
A modified Morris water maze test was used (Nampoothiri [2017]). The pool was positioned in the middle of a dimly lit testing room with distant visual clues that could be used by rats for spatial orientation. The maze consisted of a circular water pool (140 × 45 cm) divided into four equally sized quadrants (NE, SE, SW, and NW) by two imaginary diagonal lines running across the center of the pool. The pool was filled with water maintained at a temperature of 23 ± 2 °C. In the NE quadrant (target quadrant) equidistant from the center and edge of the pool, a platform of 25-cm height and 10-cm diameter was invisibly placed submerged 1 cm below the water surface. Rats were gently placed in each quadrant facing the wall and trained to locate the hidden black platform, and the trial was terminated when the rat reached the platform or after 60 s. Accordingly, rats were subjected to one session of four trials per day for four consecutive days. All rats were left on the platform for 30 s and then removed and towel dried. Inter-trial interval was kept a constant 180 s throughout the study. In the probe trial, platform was removed, and rats were allowed to swim for a 60-s trial period. Data was collected in the form of escape latencies to find the platform; percent of time spent over the target quadrant.

AChE = format: in vivo, rat; conditions: colchicine model
Experimental: Thiocholine, which was produced due to the hydrolysis of acetylthiocholine (ACTI) by AChE, was estimated by making it react with 5, 5′-dithiobis-(2-nitrobenzoic acid) (DTNB). The chemical, 5-thio-2-nitrobenzoic acid (yellow color complex), which was released due to reaction was estimated using a UV spectrophotometer in the range of 400 to 420 nm with maximal absorption at 412 nm. One hundred microliter of blank rat plasma was taken in the polypropylene vials. To this, 2.8 mL of phosphate buffer (0.01 M, pH 8) and 100 µL of DTNB reagents were added and mixed well. Then, 20 µL of ACTI (26.01 mg/mL of Milli-Q water) was added to the contents of the cuvette to initiate the enzyme reaction. The reaction kinetics was monitored at different time intervals (0, 1, 2, 3, 4 min), and absorbance was noted. 2.8 mL buffer (0.01 M, pH 8.0) and 100 µL DTNB reagent served as blank. Concentrations in the range of 0.03–30 mM were prepared using methanol as a diluent. […] Substrate concentration and reaction time were optimized such that sufficient concentration of ACTI is available to bind with the enzyme to initiate the reaction and also it should not saturate the enzyme. In this study, varying concentrations (100–1000 µM) of ACTI were prepared, and reaction kinetics were observed. In general, the maximum time should be either 2–4 min or even less, because the enzyme might undergo degradation. In the present study, up to 4 min of reaction kinetics (changing the optical density or absorbance) was measured. One unit of AChE activity is defined as the number of µmol of acetylthiocholine iodide hydrolyzed per minute. The specific activity of AChE is expressed in moles/min/mg of protein (Kaur et al. [2015]): AChEActivity=(abs.permin×1000×volumeofenzyme)/(13600×TRM)AChEActivity=abovevalue×1000(nanomolar/min/mL)
where 13,600 = molar extinction coefficient of DTNB: 1000-molar conversion factor: (TRM) total reaction mixture 3 mL: volume of enzyme (0.1 mL).

## CCN(C)C(=O)Oc1cccc([C@H](C)N(C)C)c1 [ORSM, rivastigmine]
[1]; listed as SCP + ORSM
  Score on actophotometer: 238.16 ± 20.88
[2]; listed as COL + ORSM
  Escape latency, 14th day: 5.89 ± 0.7027 s
  Escape latency, 21st day: 5.28 ± 0.3809 c s
  Escape latency, Probe day: 2.83 ± 0.3181 s
AChE
  peak AChE inhibition in rat plasma: 69.56%
  time of peak AChE inhibition in rat plasma: 45 min
AChE; 0 min, listed as COL + ORSM
  % AChE Inhibition in rat plasma: 0.00 ± 0.0811%
AChE; 5 min, listed as COL + ORSM
  % AChE Inhibition in rat plasma: 61.96 ± 0.0469%
AChE; 10 min, listed as COL + ORSM
  % AChE Inhibition in rat plasma: 66.76 ± 0.0195%
AChE; 15 min
  % AChE Inhibition in rat plasma: 65.00 ± 0.0292%
AChE; 20 min, listed as COL + ORSM
  % AChE Inhibition in rat plasma: 66.57 ± 0.0344%
AChE; 30 min, listed as COL + ORSM
  % AChE Inhibition in rat plasma: 66.82 ± 0.0101%
AChE; 60 min, listed as COL + ORSM
  % AChE Inhibition in rat plasma: 67.53 ± 0.0096%
AChE; 90 min, listed as COL + ORSM
  % AChE Inhibition in rat plasma: 61.88 ± 0.0149%
AChE; 120 min, listed as COL + ORSM
  % AChE Inhibition in rat plasma: 60.64 ± 0.0186%
AChE; 180 min, listed as COL + ORSM
  % AChE Inhibition in rat plasma: 47.43 ± 0.0393%

## CCN(C)C(=O)Oc1cccc([C@H](C)N(C)C)c1 [INRSM, rivastigmine]
[1]; listed as SCP + INRSM
  Score on actophotometer: 296.50 ± 17.68
[2]; listed as COL + INRSM
  Escape latency, 14th day: 5.28 ± 0.7425 s
  Escape latency, 21st day: 4.67 ± 0.3849 c s
  Escape latency, Probe day: 3.28 ± 0.5800 s
AChE
  peak AChE inhibition in rat plasma: 76.75%
  time of peak AChE inhibition in rat plasma: 15 min
AChE; 0 min, listed as COL + INRSM
  % AChE Inhibition in rat plasma: 0.00 ± 0.0608%
AChE; 5 min, listed as COL + INRSM
  % AChE Inhibition in rat plasma: 75.74 ± 0.0358%
AChE; 10 min, listed as COL + INRSM
  % AChE Inhibition in rat plasma: 70.41 ± 0.0540%
AChE; 20 min, listed as COL + INRSM
  % AChE Inhibition in rat plasma: 73.66 ± 0.0482%
AChE; 30 min, listed as COL + INRSM
  % AChE Inhibition in rat plasma: 67.33 ± 0.0474%
AChE; 45 min
  % AChE Inhibition in rat plasma: 64.43 ± 0.0388%
AChE; 90 min, listed as COL + INRSM
  % AChE Inhibition in rat plasma: 55.83 ± 0.0401%
AChE; 120 min, listed as COL + INRSM
  % AChE Inhibition in rat plasma: 47.15 ± 0.0392%
AChE; 180 min, listed as COL + INRSM
  % AChE Inhibition in rat plasma: 41.37 ± 0.0410%

Source: PMC8298375 (Naunyn-Schmiedeberg's Archives of Pharmacology, 2021)
